According to patent US20230272399A1, “INHIBITORS OF LINE1 AND USES THEREOF” (T-ONE THERAPEUTICS S.R.L., priority 2020, published 2023):
*1 amine or outer side, *2 acyl side, *3 side chain or, on linkers, in order; H or OH if unused. Where a SMILES comes first, the peptide text is derived from it. Bridges are numbered along the chain shown (N, C = ends). Roman numbers before positions name the chains, in order. [ ]: non-standard residue; d: D form. Actinocin(9to1) = Cc1c2oc3c(C)ccc(C(=O)[*:1])c3nc-2c(C(=O)[*:2])c(N)c1=O; NMeV = CN[C@H](C(=O)O)C(C)C; Sar = CNCC(=O)O

What was measured:
[1] = molecular target: mTORC1 (Homo sapiens, UniProt P42345+P62942); test: LINE1 expression in memory CD4+ T-cells from blood of patients treated with mTORC1 inhibitors; details: memory CD4+ T-cells from blood of kidney transplanted patients treated with Everolimus, versus healthy individuals
[2] = tested on: LINE1 RNAs; test: Actinomycin D treatment of quiescent naïve CD4+ T-cells, LINE1 expression by qRT-PCR; assay type: cell-based, human; details: Actinomycin D 5 μg/mL, 16 h
Procedure: Quiescent naïve CD4^+ T-cells were treated for 16 h with Actinomycin D 5 μg/mL (Merck; cat. num. A9415) as reported in^68. TCR signaling pathway inhibition was performed using the following immunosuppressive drugs: Rapamycin (100 nM; Merck; cat. num. R8781) for mTORC1, Ciclosporin A (0,5 μg/mL; Merck; cat. num. C3662) for Calcineurin pathway, Dexamethasone (1 μM; Merck; cat. num. D4902) for NF-κB pathway. Quiescent naïve CD4^+ T-cells were pretreated for 2 hours with the overmentioned drugs, then stimulated with Dynabeads Human T-activator anti-CD3/anti-CD28 beads in Th1 medium, in the presence of the different inhibitors; T-cells were collected 2, 4, 8 h post activation. Otherwise, naïve CD4^+ T-cells activated and cultured in Th1 medium for 72 h were treated for 48 h with the drugs. Treated cells were controlled for their vitality and treatment efficacy was assessed.

[3] = tested on: LINE1 RNAs; test: LINE1 RNA FISH in naïve CD4+ T-cells treated with 3TC retrotranscriptase inhibitor; assay type: cell-based, human; details: versus vehicle (DMSO)
Procedure: Briefly, antisense biotinylated riboprobes for LINE1, AluY and HERVK were in vitro transcribed using MAXIscript T7 transcription kit (Invitrogen) and Biotin RNA labeling mix (Roche). 50-100 ng of antisense biotinylated riboprobes per experiment were used. 3% paraformaldehyde (PFA) fixed T-cells were washed with 0.05% Triton-X-100 in PBS, permeabilized with 0.5% Triton-X-100 in PBS and maintained in 20% glycerol/PBS.
To quantify mean fluorescence intensity of RNA signal in 3D reconstructed nuclei, images were analyzed with NIS-Elements Software (by Nikon). In the “General Analysis” a mask on DAPI signals was generated to identify single nuclei, and then a “3D measurement” of RNA signals in every nucleus was performed. To measure the colocalization of RNA and histone mark signals was used ImageJ Software to control the Pearson Correlation through the command “Colocalization Threshold” for every nucleus.

Question: How did the “LINE1 RNAs expression” value [1] turn out when CO[C@H]1C[C@@H]2CC[C@@H](C)[C@@](O)(O2)C(=O)C(=O)N2CCCC[C@H]2C(=O)O[C@H]([C@H](C)C[C@@H]2CC[C@@H](OCCO)[C@H](OC)C2)CC(=O)[C@H](C)/C=C(\C)[C@@H](O)[C@@H](OC)C(=O)[C@H](C)C[C@H](C)/C=C/C=C/C=C/1C [Everolimus] was run?
Answer: re-express LINE1 RNAs

Question: With Cc1c2oc3c(C)ccc(C(=O)N[C@@H]4C(=O)N[C@H](C(C)C)C(=O)N5CCC[C@H]5C(=O)N(C)CC(=O)N(C)[C@@H](C(C)C)C(=O)O[C@@H]4C)c3nc-2c(C(=O)N[C@@H]2C(=O)N[C@H](C(C)C)C(=O)N3CCC[C@H]3C(=O)N(C)CC(=O)N(C)[C@@H](C(C)C)C(=O)O[C@@H]2C)c(N)c1=O [actinomycin D, Actinomycin D] (I: T[dV]P[Sar][NMeV] / II: T[dV]P[Sar][NMeV]; ester I:1-I:C, II:1-II:C; linker I:N-II:N via Actinocin(9to1)) as the compound, how does the “LINE1 RNAs levels” value [2] read?
Answer: moderately affect

Question: For Nc1ccn([C@@H]2CS[C@H](CO)O2)c(=O)n1 [3TC], which “staining of LINE1 RNAs (RNA-FISH)” value [3] is on record?
Answer: completely unchanged
